Test results reported in the supplement of paper PMC10883282.

Columns and labels:
Experiment in all cases: relative viability vs DMSO control (72 h) (fraction); higher = more viable cells
[1] = tested on: G401
In short: (§1)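 ATPLite readings, expressed as percent growth and averaged over up to triplicate wells, provided relative viability. Before reading, sarcoma cell lines seeded in 384-well plates to reach 80–90% confluence received 2.5 µl of serially diluted compound after 24 h, from source plates of 10 mM to 0.0002 mM. Plates were held 72 h at 37 °C, 5% CO2, with 0.1% DMSO as vehicle and a 5 µM positive control. The data were rescaled to 1 for full and 0 for none.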

[2] = tested on: KHOS-240S
In short: as §1

[3] = tested on: SW684
In short: as §1

[4] = tested on: SK-LMS-1
In short: as §1

[5] = tested on: SW872
In short: as §1

[6] = tested on: SW1353
In short: as §1

[7] = tested on: SYO-1
In short: as §1

[8] = tested on: HS729
In short: as §1

[9] = tested on: A204
In short: as §1

[10] = tested on: SK-ES-1
In short: as §1

[11] = tested on: SW982
In short: as §1

[12] = tested on: MES-SA
In short: as §1

O=C1NC(=O)[C@@H](c2cn3c4c(cccc24)CCC3)[C@@H]1c1c[nH]c2ccccc12 [Tivantinib]
Conditions | relative viability
[1], 0.00017 µM | 1
[1], 0.00051 µM | 1.01
[1], 0.00152 µM | 1.03
[1], 0.00457 µM | 1.03
[1], 0.01372 µM | 1.02
[1], 0.04115 µM | 0.982
[1], 0.1235 µM | 1.05
[1], 0.3704 µM | 0.941
[1], 1.111 µM | 0.573
[1], 3.333 µM | 0.534
[1], 10 µM | 0.367
[2], 0.00017 µM | 1.03
[2], 0.00051 µM | 1.03
[2], 0.00152 µM | 1.05
[2], 0.00457 µM | 1.04
[2], 0.01372 µM | 1.05
[2], 0.04115 µM | 1.01
[2], 0.1235 µM | 0.983
[2], 0.3704 µM | 0.791
[2], 1.111 µM | 0.271
[2], 3.333 µM | 0.25
[2], 10 µM | 0.176
[3], 0.00017 µM | 1.15
[3], 0.00051 µM | 1.119
[3], 0.00152 µM | 1.16
[3], 0.00457 µM | 1.123
[3], 0.01372 µM | 1.09
[3], 0.04115 µM | 1.13
[3], 0.1235 µM | 1.1
[3], 0.3704 µM | 0.961
[3], 1.111 µM | 0.783
[3], 3.333 µM | 0.601
[3], 10 µM | 0.636
[4], 0.00017 µM | 1
[4], 0.00051 µM | 1.01
[4], 0.00152 µM | 0.972
[4], 0.00457 µM | 1.002
[4], 0.01372 µM | 1
[4], 0.04115 µM | 0.965
[4], 0.1235 µM | 0.887
[4], 0.3704 µM | 0.5799
[4], 1.111 µM | 0.497
[4], 3.333 µM | 0.385
[4], 10 µM | 0.301
[5], 0.00017 µM | 0.993
[5], 0.00051 µM | 0.973
[5], 0.00152 µM | 1
[5], 0.00457 µM | 0.996
[5], 0.01372 µM | 0.979
[5], 0.04115 µM | 1.008
[5], 0.1235 µM | 0.967
[5], 0.3704 µM | 0.933
[5], 1.111 µM | 0.473
[5], 3.333 µM | 0.485
[5], 10 µM | 0.467
[6], 0.00017 µM | 0.982
[6], 0.00051 µM | 0.9442
[6], 0.00152 µM | 0.985
[6], 0.00457 µM | 0.96
[6], 0.01372 µM | 0.99
[6], 0.04115 µM | 0.963
[6], 0.1235 µM | 0.955
[6], 0.3704 µM | 0.88
[6], 1.111 µM | 0.666
[6], 3.333 µM | 0.45
[6], 10 µM | 0.453
[7], 0.00017 µM | 0.934
[7], 0.00051 µM | 0.928
[7], 0.00152 µM | 0.95
[7], 0.00457 µM | 0.924
[7], 0.01372 µM | 0.911
[7], 0.04115 µM | 0.894
[7], 0.1235 µM | 0.861
[7], 0.3704 µM | 0.716
[7], 1.111 µM | 0.327
[7], 3.333 µM | 0.271
[7], 10 µM | 0.28
[8], 0.00017 µM | 0.901
[8], 0.00051 µM | 0.924
[8], 0.00152 µM | 0.917
[8], 0.00457 µM | 0.899
[8], 0.01372 µM | 0.916
[8], 0.04115 µM | 0.865
[8], 0.1235 µM | 0.864
[8], 0.3704 µM | 0.862
[8], 1.111 µM | 0.599
[8], 3.333 µM | 0.621
[8], 10 µM | 0.564
[9], 0.00017 µM | 1.08
[9], 0.00051 µM | 1.05
[9], 0.00152 µM | 1.09
[9], 0.00457 µM | 1.11
[9], 0.01372 µM | 1.1
[9], 0.04115 µM | 1.07
[9], 0.1235 µM | 1.06
[9], 0.3704 µM | 1.05
[9], 1.111 µM | 0.455
[9], 3.333 µM | 0.439
[9], 10 µM | 0.331
[10], 0.00017 µM | 1.01
[10], 0.00051 µM | 1.04
[10], 0.00152 µM | 1
[10], 0.00457 µM | 1.08
[10], 0.01372 µM | 1.03
[10], 0.04115 µM | 1.02
[10], 0.1235 µM | 0.9862
[10], 0.3704 µM | 0.645
[10], 1.111 µM | 0.0656
[10], 3.333 µM | 0.0193
[10], 10 µM | 0.0196
[11], 0.00017 µM | 1.05
[11], 0.00051 µM | 1.04
[11], 0.00152 µM | 1.04
[11], 0.00457 µM | 1.07
[11], 0.01372 µM | 1.06
[11], 0.04115 µM | 1.04
[11], 0.1235 µM | 1.03
[11], 0.3704 µM | 0.766
[11], 1.111 µM | 0.378
[11], 3.333 µM | 0.272
[11], 10 µM | 0.2611
[12], 0.00017 µM | 0.9028
[12], 0.00051 µM | 0.908
[12], 0.00152 µM | 0.92
[12], 0.00457 µM | 0.919
[12], 0.01372 µM | 0.914
[12], 0.04115 µM | 0.888
[12], 0.1235 µM | 0.919
[12], 0.3704 µM | 0.406
[12], 1.111 µM | 0.285
[12], 3.333 µM | 0.205
[12], 10 µM | 0.1134
